Assay [1] relates to RIG-I deficient CT26 RIG-1−/− cells. The assay can be described thus: CXCL10 secretion in RIG-I deficient CT26 RIG-1−/− cells (ELISA). The assay is classed as cell-based, murine. The settings on record: 10 μM compound, 24 h. How it is done: (§1) The CT26 murine colon carcinoma cell line (ATCC) was used to evaluate the induction of CXCL10 secretion. CXCL10 is an important chemokine in tumor immune biology that recruits tumor-specific T cells to the tumor. To confirm that compound-mediated CXCL10 production was RIG-I specific, RIG-I deficient CT2-RIG-1−/− cells were generated by Kineta using CRISPR technology.
(§2) CT26 cells were seeded at a density of 1×10^4 cells per well on a 96-well tissue culture plate in 100 μL of cell culture and cells were incubated at 37° C. and 5% CO2 for 24 hr. Next, CT26 cells were treated with compounds at the indicated concentrations. CXCL10 was quantified by ELISA from supernatants taken 24 h after compound stimulation by use of the CXCL10 DuoSet ELISA kit (Cat # DY466, R&D, Minneapolis, Minn., USA) according to the manufacturer's instructions.
(§3) CXCL10 secretion by CT26 cells in response to compounds (in an amount of 5 to 20 μM) of the present disclosure is shown in Table 8. The compound-induced CXCL10 production was RIG-I dependent, since none of the compounds mediated CXCL10 secretion in RIG-I deficient CT26 RIG-1−/− cells. The compounds (10 μM, *20 μM, **5 μM) are indicated in the table as follows: “−” indicates less than 100 pg/mL; “+” indicates 100-199 pg/mL; “++” indicates 200-399 pg/mL; “+++” indicates 400-799 pg/mL; “++++” indicates 800 to 1599 pg/mL; “+++++” indicates greater than or equal to 1600 pg/ml.

Assay [2] relates to CXCL10 secretion by CT26 cells. The assay is described as follows: RIG-I dependent CXCL10 secretion by CT26 colon carcinoma cells (ELISA). It counts as cell-based, murine. The settings on record: 10 μM compound, 24 h. How it is done:
as §1, §2, §3
A general note: ELISA stands for enzyme-linked immunosorbent assay.

In assay [3] the test system is THP1-Lucia ISG IRF3 −/− cells. The assay is described as follows: IRF3-deficient THP1-Lucia ISG IRF3 −/− reporter assay (counter-screen). It counts as cell-based. The following applies: Homo sapiens, 10 μM compound, 18 h after stimulation, read-out: THP1 ISG IRF3 −/−: fold increase of luciferase activity over background. Here is the method: (§4) The promotor was comprised of five IFN-stimulated response elements (ISRE) fused to an ISG54 minimal promotor which is unresponsive to NF-kB or AP-1 pathways. […] The IRF3-deficient THP1-Lucia™ ISG IRF3 −/− reporter cell line was generated by CRISPR technology from the parent THP1-Lucia™ ISG reporter cell line.
(§5) 5 THP1-Lucia™ ISG cells and IRF3-deficient THP1-Lucia™ ISG IRF3 −/− cells were differentiated with PMA (100 ng/ml) and stimulated with compounds at the indicated concentrations (5 to 20 μM), positive control, or not treated (background). Luciferase secretion was quantified using the QUANTI-Luc luciferase assay system (InvivoGen) 18 h after stimulation. Data are shown as fold increase luciferase activity over background in Table 7 and represent the IRF3-dependent ISG54 promotor activity by the THP1-Lucia™ ISG cells in response to compounds. […] The fold increase of compounds (10 μM, *20 μM, **5 μM) induced IRF3 dependent luciferase activity is indicated as follows: “−” indicates less than 2.4 fold increase; “+” indicates a 2.4-4.9 fold increase; “++” indicates a 5-9.9 fold increase; “+++” indicates a 10-19 fold increase; “++++” indicates a 20-39 fold increase; “+++++” indicates greater than or equal to 40 fold increase.
In general terms: A reporter such as luciferase makes a cellular process visible.

The test system of assay [4] is IRF3 signaling pathway (IRF-inducible ISG54 promotor) in THP1-Lucia ISG cells. The assay can be described thus: THP1-Lucia ISG reporter assay: induction of IRF3-dependent luciferase activity. It counts as cell-based. The following applies: Homo sapiens, 10 μM compound, PMA-differentiated cells, 18 h after stimulation, read-out: THP1 ISG: fold increase of IRF3-dependent luciferase activity over background. Here is the method:
The compounds were evaluated in the THP1-Lucia™ ISG (interferon stimulated genes) reporter assay to determine if the compounds activate the IRF3 signaling pathway. The THP1-Lucia™ cells (InvivoGen) express the secreted luciferase (Lucia) reporter gene under the control of an IRF-inducible promotor. The reporter cell line was developed from human monocytic leukemia THP-1 cells.
as §4, §5

SMILES strings stand for the structures.

In the case of `O=C(Nc1nc2ccc(S(=O)(=O)N3CCC3)cc2s1)c1ccc(-c2ccccc2)cc1OCCN1CCOCC1` [Example 60, N-[6-(azetidine-1-sulfonyl)-1,3-benzothiazol-2-yl]-3-[2-(morpholin-4-yl)ethoxy]-[1,1′-biphenyl]-4-carboxamide], the “CXCL10 secretion by CT26 RIG-I −/− cells” value in assay [1] is given as “− (“−” indicates less than 100 pg/mL)”. In assay [2], the “CXCL10 secretion by CT26 cells” value is “++++ (“++++” indicates 800 to 1599 pg/mL)”. Moreover, the fold induction at 10 µM in assay [3] was less than 2.4; in assay [4], 20 to 39.
Consider `CS(=O)(=O)c1ccc2nc(NC(=O)c3ccc4ccccc4c3)sc2c1` [Example 1, N-(6-methanesulfonyl-1,3-benzothiazol-2-yl)naphthalene-2-carboxamide], for which the “CXCL10 secretion by CT26 RIG-I −/− cells” value in assay [1] is given as “− (“−” indicates less than 100 pg/mL)”. For the same compound, the “CXCL10 secretion by CT26 cells” value in assay [2] is given as “++++ (“++++” indicates 800 to 1599 pg/mL)”. Also, the fold induction at 10 µM in assay [3] is less than 2.4; in assay [4], 10 to 19.
Consider `O=C(Nc1nc2ccc(S(=O)(=O)N3CCC3)cc2s1)c1cc2ccsc2cc1OCCN1CCOCC1` [Example 62, N-[6-(azetidine-1-sulfonyl)-1,3-benzothiazol-2-yl]-6-[2-(morpholin-4-yl)ethoxy]-1-benzothiophene-5-carboxamide], for which, in assay [1], the “CXCL10 secretion by CT26 RIG-I −/− cells” value is given as “− (“−” indicates less than 100 pg/mL)”. Further, the “CXCL10 secretion by CT26 cells” value in assay [2] is on record as “++++ (“++++” indicates 800 to 1599 pg/mL)”. In addition, the fold induction at 10 µM in assay [3] is less than 2.4; in assay [4], 20 to 39.
Take `O=C(Nc1nc2ccc(S(=O)(=O)N3CCCC3)cc2s1)c1ccc(-c2ccccc2)cc1OCCN1CCOCC1` [Example 47, 3-[2-(morpholin-4-yl)ethoxy]-N-[6-(pyrrolidine-1-sulfonyl)-1,3-benzothiazol-2-yl]-[1,1′-biphenyl]-4-carboxamide]: in assay [1], the “CXCL10 secretion by CT26 RIG-I −/− cells” value is “− (“−” indicates less than 100 pg/mL)”. For the same compound, in assay [2], the “CXCL10 secretion by CT26 cells” value is “+++ (“+++” indicates 400-799 pg/mL)”. The values for the fold induction at 10 µM in assay [3] and in assay [4] were less than 2.4 and not below 40, respectively.
Turning to `CS(=O)(=O)c1ccc2nc(NC(=O)c3cc4ccccc4cc3OCCCCN3CCOCC3)sc2c1` [Example 45, N-(6-methanesulfonyl-1,3-benzothiazol-2-yl)-3-[4-(morpholin-4-yl)butoxy]naphthalene-2-carboxamide], the “CXCL10 secretion by CT26 RIG-I −/− cells” value in assay [1] is listed as “− (“−” indicates less than 100 pg/mL)”. In addition, in assay [2], the “CXCL10 secretion by CT26 cells” value was “++++ (“++++” indicates 800 to 1599 pg/mL)”. Also, the fold induction at 10 µM in assay [3] was less than 2.4; in assay [4] it was 5 to 9.9.
`O=C(Nc1nc2ccc(SC(F)(F)F)cc2s1)c1ccc2ccccc2c1` [Example 9, N-{6-[(trifluoromethyl)sulfanyl]-1,3-benzothiazol-2-yl}naphthalene-2-carboxamide]: in assay [1], the “CXCL10 secretion by CT26 RIG-I −/− cells” value is listed as “− (“−” indicates less than 100 pg/mL)”. In assay [2], the “CXCL10 secretion by CT26 cells” value is “+++ (“+++” indicates 400-799 pg/mL)”. Also, the fold induction at 10 µM was less than 2.4 in assay [3] and 5 to 9.9 in assay [4].
Consider `O=C(Nc1nc2ccc(S(=O)(=O)N3CCCCC3)cc2s1)c1cc2ccccc2cc1OCCN1CCOCC1` [Example 37, 3-[2-(morpholin-4-yl)ethoxy]-N-[6-(piperidine-1-sulfonyl)-1,3-benzothiazol-2-yl]naphthalene-2-carboxamide], for which the “CXCL10 secretion by CT26 RIG-I −/− cells” value in assay [1] is reported as “− (“−” indicates less than 100 pg/mL)”. For the same compound, the “CXCL10 secretion by CT26 cells” value in assay [2] was “+++ (“+++” indicates 400-799 pg/mL)”. Moreover, the fold induction at 10 µM in assay [3] is less than 2.4; in assay [4], 10 to 19.
Turning to `O=C(Nc1cc2ccc(S(=O)(=O)N3CCCC3)cc2s1)c1ccc(-c2ccccc2)cc1OCCCCN1CCOCC1` [Example 68, 3-[4-(morpholin-4-yl)butoxy]-N-[6-(pyrrolidine-1-sulfonyl)-1-benzothiophen-2-yl]-[1,1′-biphenyl]-4-carboxamide], the “CXCL10 secretion by CT26 RIG-I −/− cells” value in assay [1] is given as “− (“−” indicates less than 100 pg/mL)”. In addition, in assay [2], the “CXCL10 secretion by CT26 cells” value is reported as “++++ (“++++” indicates 800 to 1599 pg/mL)”. Further, the fold induction at 10 µM in assay [3] is less than 2.4; in assay [4] it was 20 to 39.

For the origin of these results see patent US20200071316A1, “ACTIVATORS OF THE RETINOIC ACID INDUCIBLE GENE "RIG-I" PATHWAY AND METHODS OF USE THEREOF” (Kineta Immuno-Oncology LLC, priority 2018, published 2020).
